US7781409B2, “Composition for external use” (Suntory Holdings Limited, priority 2003, dated 2010)
Like-named read-outs stand apart in the source and are kept apart here.

How the values were obtained:
pig skin = conditions: 10% aqueous solution, pre-administration for 3 days to one week, Br. J. Dermatol. 1992; cited from earlier work
guinea pig skin = conditions: shaved back, external application, Fragrance Journal 1997; cited from earlier work
burn patient = conditions: applied, Japanese Cosmetic Science Society 1998; cited from earlier work
[1] = rat, J.Pharmacobio-Dyn., 13, 688, 1990; cited from earlier work
human skin = conditions: cream containing the compound applied, Fragrance Journal 1997; cited from earlier work
[2] = tested on: human isolated skin piece; conditions: female, 5 h, 100 mM, pH 7.25
[3] = tested on: human skin keratinocytes HaCaT; test: Concentration of intracellular ascorbic acid in human skin keratinocytes; format: cell-based; conditions: compared with 2-O-(α-D-glucopyranosyl)ascorbic acid and ascorbic acid; FIG. 2
Experimental: At 3 to 24 hours after addition, a medium is removed, rinsed twice with ice-cooled PBS, and a cell sheet is peeled with trypsin to make single cell state. This is suspended in PBS containing 50 μM dithiothreitol (DTT), and rinsed three times by centrifugation. The cell suspension is disrupted with a potter-type teflon (registered trademark) homogenizer, and then frozen and thawed twice. […] SHODEX® ODSpak (manufactured by SHOWA DENKO K.K., 4.6×150 mm) , mobile phase: 0.1 M KH2PO4-H3PO4 (pH 2.35)-0.1 mM EDTA-2Na, flow rate: 1.5 mL/min).

[4] = tested on: normal human dermal fibroblasts (NHDF); test: Collagen synthesis of normal human dermal fibroblasts (3H-proline incorporation, collagenase-sensitive); format: cell-based; conditions: compared with 2-O-(α-D-glucopyranosyl)ascorbic acid or ascorbic acid; FIG. 3
Experimental: Normal human dermal fibroblasts NHDF are seeded in a dish having a diameter of 100 millimeter at 370,000 cells. […] After additional 1 hour, 0.12 mL (120 μCi) of L-(2,3-^3H) proline is added, followed by culturing for 48 hours. After culturing, the medium is removed, and a cell sheet is rinsed with PBS four times. Then, cells are peeled with trypsin, cells are lysed with an alkali, and neutralized to obtain an intracellular protein. The protein is subjected to collagen degradation with collagenase of Clostridium to obtain a protein fraction, and radioactivity of the fraction is measured with a liquid scintillation counter using […]. Separately, radioactivity of an intracellular protein fraction which has not been treated with collagenase is similarly measured with a liquid scintillation counter. A difference between respective radioactivities obtained is adopted as collagen synthesis activity.

[5] = tested on: keratinocytes (HaCaT) derived from human skin epidermis; test: Protective effect on cell death of keratinocytes (HaCaT) by UVB irradiation (WST-1 cell survival rate); format: cell-based; conditions: same concentration, compared with ascorbic acid or 2-O-(α-D-glucopyranosyl)ascorbic acid; FIG. 1
Experimental: Human skin keratinocytes HaCaT (cell line gifted by Dr. Fusenig of Heidelberg University) was seeded to 10% bovine fetal serum (FBS)-containing Dulbecco modified Eagle medium (DMEM) at 10,000 cells/well in a 24-well plate, and after 18 hours, 35 millijoule/square centimeter (mJ/cm^2) of UBV (maximum wavelength 312 nm) was irradiated. Two hours before the irradiation, 20 to 100 μM of 2-O-(β-D-glucopyranosyl)ascorbic acid was added, and such ascorbic acid was removed immediately before the irradiation and then rinsed. Irradiation was performed in PBS in the absence of a drug, and after irradiation, culturing was continued in a FBS 10%-containing DMEM medium, and 24 hours after irradiation, a cell survival rate was investigated by a method for measuring mitochondrion dehydrogenase activity with the use of 2-(4-iodophenyl)-3-(4-nitrophenyl)-5-(2,4-disulfophenyl)-2H-tetrazolium monosodium salt (WST-1). Similarly, as Comparative Example, 2-O-(α-D-glucopyranosyl) ascorbic acid and ascorbic acid were studied, and the results are also shown in FIG. 1.

[6] = Pharmacokinetics at oral ingestion by a rat: intact form in blood; format: in vivo

O=C1O[C@H]([C@@H](O)CO)C(O)=C1O [ascorbic acid]
Ultraviolet-ray disorder (pig skin): ultraviolet-ray disorder can be alleviated
Inducement of skin inflammation due to UVB irradiation (guinea pig skin): suppressed

O=C1O[C@H]([C@@H](O)CO)C(O)=C1OP(=O)(O)O [ascorbic acid 2-phosphate]
Cure of burn (burn patient): cured without scar

O=C1O[C@H]([C@@H](O)CO)C(O)=C1O[C@H]1O[C@H](CO)[C@@H](O)[C@H](O)[C@H]1O [2-O-(α-D-glucopyranosyl)ascorbic acid]
Intact form in blood after oral ingestion [1]: not detected as an intact form in blood
Pigmentation due to ultraviolet-ray irradiation (human skin): suppressed
Inducement of skin inflammation due to UVB irradiation (guinea pig skin): suppressed

O=C1O[C@H]([C@@H](O)CO)C(O)=C1O[C@@H]1O[C@H](CO)[C@@H](O)[C@H](O)[C@H]1O [AβG, 2-O-(β-D-glucopyranosyl)ascorbic acid]
Ratio (%) of reduced form of vitamin C occupied in total vitamin C in skin, Dermis [2]: 25%
Ratio (%) of reduced form of vitamin C occupied in total vitamin C in skin, Epidermis [2]: 67%
Total vitamin C in skin, Dermis [2]: 3 nmol/g tissue
Total vitamin C in skin, Epidermis [2]: 15 nmol/g tissue
Uptake amount of AβG into skin piece, Dermis [2]: 500
Uptake amount of AβG into skin piece, Epidermis [2]: 3,400
Concentration of intracellular ascorbic acid in human skin keratinocytes [3]: maintained at a highest concentration for a longest term
Collagen synthesis by normal human dermal fibroblasts (NHDF) [4]: has higher activity
Suppression of cell death of keratinocytes (HaCaT) due to UVB irradiation [5]: clearly suppressed more strongly cell death
Intact form in blood after oral ingestion [6]: detected in blood
